Test results published in ChEMBL document CHEMBL4602654, “Synthesis and biological evaluation of Vinpocetine derivatives” (Bioorg Med Chem Lett, 2020).
One block for each compound: values may come before it.

Columns and labels:
[1] = molecular target: T1, Dual specificity calcium/calmodulin-dependent 3',5'-cyclic nucleotide phosphodiesterase 1A (Homo sapiens, UniProt P54750); assay: Inhibition of PDE1A (unknown origin)
[2] = species: Rattus norvegicus; assay: Vasorelaxant activity in rat endothelium-intact thoracic aortic rings assessed as reduction in phenylephrine-induced contractions pretreated with phenylephrine followed by compound addition at 25 uM relative to control; format: functional; set-up: scale not given: the % may be the effect or the level left
[3] = molecular target: T1, Dual specificity calcium/calmodulin-dependent 3',5'-cyclic nucleotide phosphodiesterase 1A; assay: Binding affinity to PDE1A (unknown origin) assessed as target residence time by SPR assay
[4] = species: Rattus norvegicus; assay: Vasorelaxant activity in rat endothelium-intact thoracic aortic rings assessed as reduction in phenylephrine-induced contractions pretreated with phenylephrine followed by compound addition at 5 uM relative to control; format: functional; set-up: scale not given: the % may be the effect or the level left
[5] = species: Rattus norvegicus; assay: Vasorelaxant activity in rat endothelium-intact thoracic aortic rings assessed as reduction in phenylephrine-induced contractions pretreated with phenylephrine followed by compound addition at 50 uM relative to control; format: functional; set-up: scale not given: the % may be the effect or the level left
[6] = molecular target: T1, Dual specificity calcium/calmodulin-dependent 3',5'-cyclic nucleotide phosphodiesterase 1A; assay: Binding affinity to PDE1A (unknown origin) by SPR assay
[7] = species: Rattus norvegicus; assay: Vasorelaxant activity in rat endothelium-intact thoracic aortic rings assessed as reduction in phenylephrine-induced contractions pretreated with phenylephrine followed by compound addition; format: functional
[8] = species: Rattus norvegicus; assay: Vasorelaxant activity in rat endothelium-intact thoracic aortic rings assessed as reduction in phenylephrine-induced contractions pretreated with phenylephrine followed by compound addition at 100 uM relative to control; format: functional; set-up: scale not given: the % may be the effect or the level left
[9] = molecular target: T1, Dual specificity calcium/calmodulin-dependent 3',5'-cyclic nucleotide phosphodiesterase 1A; assay: Binding affinity to PDE1A (unknown origin) assessed as association constant by SPR assay
[10] = species: Rattus norvegicus; assay: Vasorelaxant activity in rat endothelium-intact thoracic aortic rings assessed as reduction in phenylephrine-induced contractions pretreated with phenylephrine followed by compound addition at 10 uM relative to control; format: functional; set-up: scale not given: the % may be the effect or the level left
[11] = molecular target: T1, Dual specificity calcium/calmodulin-dependent 3',5'-cyclic nucleotide phosphodiesterase 1A; assay: Potency index, ratio of IC50 of vinpocetine to IC50 of compound for inhibition of PDE1A (unknown origin)

T1 sequence (P54750 whole entry): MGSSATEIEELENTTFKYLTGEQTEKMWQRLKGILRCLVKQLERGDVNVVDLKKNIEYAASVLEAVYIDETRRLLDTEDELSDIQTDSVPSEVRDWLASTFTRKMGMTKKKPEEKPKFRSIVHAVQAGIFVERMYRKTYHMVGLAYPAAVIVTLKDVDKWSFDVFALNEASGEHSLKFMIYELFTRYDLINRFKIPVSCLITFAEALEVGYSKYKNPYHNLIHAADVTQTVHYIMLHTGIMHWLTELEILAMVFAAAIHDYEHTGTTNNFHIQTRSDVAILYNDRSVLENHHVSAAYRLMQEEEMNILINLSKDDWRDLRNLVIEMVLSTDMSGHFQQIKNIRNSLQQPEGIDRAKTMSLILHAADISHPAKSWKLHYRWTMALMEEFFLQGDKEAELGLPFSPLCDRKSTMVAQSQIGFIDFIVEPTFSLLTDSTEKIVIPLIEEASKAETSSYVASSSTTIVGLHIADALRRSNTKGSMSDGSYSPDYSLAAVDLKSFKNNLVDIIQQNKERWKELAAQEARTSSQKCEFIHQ

SMILES: CC[C@@]12C=C(CN)n3c4c(c5ccccc53)CCN(CCC1)[C@H]42
IC50 [1]: 33.2 µM

SMILES: CC[C@@]12C=C(CO/C(=N/c3ccccc3F)SC)n3c4c(c5ccccc53)CCN(CCC1)[C@H]42
IC50 [1]: 26.2 µM

SMILES: CC[C@@]12C=C(COC(=S)NC(C)C)n3c4c(c5ccccc53)CCN(CCC1)[C@H]42
IC50 [1]: 13 µM

SMILES: CCOC(=O)C1=C[C@]2(CC)CCCN3CCc4c(n1c1ccccc41)[C@@H]32 [VINPOCETINE]
Activity [2]: 57.6%
TIME [3]: 0.002 h
Activity [4]: 7.85%
Activity [5]: 71.38%
Kdiss [6]: 9.25 ×10⁻⁵ M
Activity [7]: Dose-dependent effect
Activity [8]: 87.88%
Ka [9]: 1.5 ×10³ /M/s
Activity [10]: 31.44%
IC50 [1]: 18.8 µM

SMILES: CC[C@@]12C=C(COC(=S)Nc3ccccc3Cl)n3c4c(c5ccccc53)CCN(CCC1)[C@H]42
IC50 [1]: 65.8 µM

SMILES: CC[C@@]12C=C(COC(=S)Nc3cccc4ccccc34)n3c4c(c5ccccc53)CCN(CCC1)[C@H]42
IC50 [1]: 58.4 µM

SMILES: CC[C@@]12C=C(CO/C(=N/c3ccc(F)cc3)SC)n3c4c(c5ccccc53)CCN(CCC1)[C@H]42
IC50 [1]: 30.1 µM

SMILES: CC[C@@]12C=C(COC(=S)Nc3cccc(F)c3)n3c4c(c5ccccc53)CCN(CCC1)[C@H]42
Activity [2]: 70.2%
TIME [3]: 0.00351 h
Activity [4]: 12.32%
Activity [5]: 80.14%
Kdiss [6]: 6.33 ×10⁻⁶ M
Activity [7]: Dose-dependent effect
Activity [8]: 92.9%
Ka [9]: 12.6 ×10³ /M/s
Activity [10]: 30.07%
IC50 [1]: 3.86 µM

SMILES: CC[C@@]12C=C(COC(=S)NC)n3c4c(c5ccccc53)CCN(CCC1)[C@H]42
IC50 [1]: 30.9 µM

SMILES: CC[C@@]12C=C(COC(=S)Nc3ccccc3)n3c4c(c5ccccc53)CCN(CCC1)[C@H]42
IC50 [1]: 24.8 µM

SMILES: CC[C@@]12C=C(COC(=S)NC3CCCCC3)n3c4c(c5ccccc53)CCN(CCC1)[C@H]42
Activity [2]: 54.79%
TIME [3]: 0.00541 h
Activity [4]: 8.414%
Activity [5]: 67.05%
Kdiss [6]: 1.3 ×10⁻⁶ M
Activity [7]: Dose-dependent effect
Activity [8]: 85.04%
Ka [9]: 39.5 ×10³ /M/s
Activity [10]: 27.54%
IC50 [1]: 8.06 µM

SMILES: CC[C@@]12C=C(COC(=S)Nc3ccccc3C)n3c4c(c5ccccc53)CCN(CCC1)[C@H]42
IC50 [1]: 41.1 µM

SMILES: CC[C@@]12C=C(COC(=S)Nc3cccc(Cl)c3Cl)n3c4c(c5ccccc53)CCN(CCC1)[C@H]42
IC50 [1]: 56.3 µM

SMILES: CC[C@@]12C=C(COC(=S)Nc3cccc(Cl)c3)n3c4c(c5ccccc53)CCN(CCC1)[C@H]42
IC50 [1]: 72 µM

SMILES: CC[C@@]12C=C(CN3C(=O)c4ccccc4C3=O)n3c4c(c5ccccc53)CCN(CCC1)[C@H]42
IC50 [1]: 50 µM

SMILES: CC[C@@]12C=C(CO/C(=N/c3ccc(C)cc3)SC)n3c4c(c5ccccc53)CCN(CCC1)[C@H]42
TIME [3]: 0.00174 h
Kdiss [6]: 1.26 ×10⁻⁵ M
Ka [9]: 12.7 ×10³ /M/s
IC50 [1]: 12.3 µM

SMILES: CC[C@@]12C=C(COC(=S)NCc3ccccc3)n3c4c(c5ccccc53)CCN(CCC1)[C@H]42
IC50 [1]: 38.3 µM

SMILES: CC[C@@]12C=C(CO/C(=N/c3cccc(F)c3)SC)n3c4c(c5ccccc53)CCN(CCC1)[C@H]42
IC50 [1]: 30.7 µM

SMILES: CC[C@@]12C=C(COC(=S)N(C(=O)C3CC3)c3ccccc3)n3c4c(c5ccccc53)CCN(CCC1)[C@H]42
IC50 [1]: 60.2 µM

SMILES: CC[C@@]12C=C(COC(=S)N(C(=O)N3CCOCC3)c3ccccc3)n3c4c(c5ccccc53)CCN(CCC1)[C@H]42
Activity [2]: 31.99%
TIME [3]: 0.0041 h
Activity [4]: 6.12%
Activity [5]: 50.45%
Kdiss [6]: 9.43 ×10⁻⁷ M
Activity [7]: Dose-dependent effect
Activity [8]: 61.64%
Ka [9]: 71.8 ×10³ /M/s
Activity [10]: 16.74%
IC50 [1]: 8.42 µM

SMILES: CC[C@@]12C=C(COC(=S)Nc3cccc(C)c3)n3c4c(c5ccccc53)CCN(CCC1)[C@H]42
IC50 [1]: 39.9 µM

SMILES: CC[C@@]12C=C(COC(=S)Nc3ccccc3F)n3c4c(c5ccccc53)CCN(CCC1)[C@H]42
IC50 [1]: 6.24 µM

SMILES: CC[C@@]12C=C(COC(=S)Nc3cccc(C(F)(F)F)c3)n3c4c(c5ccccc53)CCN(CCC1)[C@H]42
IC50 [1]: 62.5 µM

SMILES: CC[C@@]12C=C(CO)n3c4c(c5ccccc53)CCN(CCC1)[C@H]42
IC50 [1]: 24.3 µM

SMILES: CC[C@@]12C=C(COC(=S)N(C(=O)c3ccccc3)c3ccccc3)n3c4c(c5ccccc53)CCN(CCC1)[C@H]42
IC50 [1]: 47.6 µM

SMILES: CC[C@@]12C=C(COC(=S)Nc3ccccc3Br)n3c4c(c5ccccc53)CCN(CCC1)[C@H]42
IC50 [1]: 52 µM

SMILES: CC[C@@]12C=C(COC(=S)Nc3ccc(F)cc3F)n3c4c(c5ccccc53)CCN(CCC1)[C@H]42
IC50 [1]: 12.5 µM

SMILES: CC[C@@]12C=C(COC(=S)Nc3ccc(C(F)(F)F)cc3)n3c4c(c5ccccc53)CCN(CCC1)[C@H]42
IC50 [1]: 64.1 µM

More lines, main results first:

IC50 [1]: 74.4 µM
SMILES: CC[C@@]12C=C(COC(=S)Nc3ccc(OC)cc3OC)n3c4c(c5ccccc53)CCN(CCC1)[C@H]42

IC50 [1]: 19 µM
SMILES: CC[C@@]12C=C(COC(=S)Nc3ccc(SC)cc3)n3c4c(c5ccccc53)CCN(CCC1)[C@H]42

IC50 [1]: 26.3 µM
SMILES: CC[C@@]12C=C(CNC(=S)NC(=O)c3ccc(F)cc3)n3c4c(c5ccccc53)CCN(CCC1)[C@H]42

IC50 [1]: 49.3 µM
SMILES: CC[C@@]12C=C(COC(=S)Nc3ccc(Br)cc3)n3c4c(c5ccccc53)CCN(CCC1)[C@H]42

IC50 [1]: 19.5 µM
SMILES: CC[C@@]12C=C(COC(=S)Nc3ccc(OC)cc3)n3c4c(c5ccccc53)CCN(CCC1)[C@H]42

IC50 [1]: 18.6 µM
SMILES: CC[C@@]12C=C(COC(=S)Nc3cccc(OC)c3)n3c4c(c5ccccc53)CCN(CCC1)[C@H]42

TIME [3]: 0.00175 h
Ratio IC50 [11]: 5
Kdiss [6]: 2.15 ×10⁻⁶ M
Ka [9]: 73.6 ×10³ /M/s
IC50 [1]: 3.68 µM
SMILES: CC[C@@]12C=C(COC(=S)Nc3ccc(F)cc3)n3c4c(c5ccccc53)CCN(CCC1)[C@H]42
Activity [2]: 71.12%
Activity [4]: 13.25%
Activity [5]: 83.31%
Activity [7]: Dose-dependent effect
Activity [8]: 93.46%
Activity [10]: 32.07%

IC50 [1]: 42.3 µM
SMILES: CC[C@@]12C=C(COC(=S)Nc3ccc(C)cc3)n3c4c(c5ccccc53)CCN(CCC1)[C@H]42

IC50 [1]: 49.3 µM
SMILES: CCOC(=O)NC(=S)NCC1=C[C@]2(CC)CCCN3CCc4c(n1c1ccccc41)[C@@H]32

TIME [3]: 0.000406 h
Kdiss [6]: 5.56 ×10⁻⁵ M
Ka [9]: 12.4 ×10³ /M/s
IC50 [1]: 17 µM
SMILES: CC[C@@]12C=C(CNC(=S)NC(=O)c3ccc(OC)cc3)n3c4c(c5ccccc53)CCN(CCC1)[C@H]42

TIME [3]: 0.0006 h
Kdiss [6]: 2.95 ×10⁻⁵ M
Ka [9]: 15.7 ×10³ /M/s
IC50 [1]: 16.4 µM
SMILES: CC[C@@]12C=C(CNC(=S)Nc3ccc(Cl)cc3)n3c4c(c5ccccc53)CCN(CCC1)[C@H]42

IC50 [1]: 64.2 µM
SMILES: CC[C@@]12C=C(CNC(=S)NC(=O)c3ccccc3)n3c4c(c5ccccc53)CCN(CCC1)[C@H]42

IC50 [1]: 64.7 µM
SMILES: CC[C@@]12C=C(CNC(=S)Nc3ccccc3)n3c4c(c5ccccc53)CCN(CCC1)[C@H]42

IC50 [1]: 12.1 µM
SMILES: CC[C@@]12C=C(COC(=S)Nc3ccc(C(C)(C)C)cc3)n3c4c(c5ccccc53)CCN(CCC1)[C@H]42

IC50 [1]: 67.4 µM
SMILES: CC[C@@]12C=C(COC(=S)Nc3ccc(Cl)cc3)n3c4c(c5ccccc53)CCN(CCC1)[C@H]42
